Test systems include SK-OV-3; U-251; A498; MCF7; OVCAR-4; SF-295; SR; Malme-3M; HCC 2998; NCI-H522; MOLT-4; OVCAR-3; SW-620; HT-29; HOP-62; SF-539; ACHN; CAKI-1; Hs-578T; OVCAR-5.
What all share (assay): NCI-60 cell line screen, 48 h

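Growth conditions: 96-well plates. Treatment: test compound, 48 hours, 5 concentrations. Analysis: linear interpolation between bracketing concentrations; unreached endpoints set to highest concentration. GI50 = concentration required for 50% inhibition of growth.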 Active and inactive are the calls of the source. Cut-off read from the data, not from the text of the source: active = GI50 up to about 1.1 µM and inactive = higher.

As to `c1ccc(-c2cc(-c3cc(-c4ccccn4)[nH]n3)n[nH]2)nc1`, the GI50 with SK-OV-3 is > 100 µM (inactive); in the test on U-251, > 100 µM (inactive); in the test with A498 it was > 100 µM (inactive); in the test on MCF7, > 100 µM (inactive); with OVCAR-4, > 100 µM (inactive); with SF-295, 85.5 µM (inactive). Further, the GI50 in the test on SR is 17.6 µM (inactive); in the test with Malme-3M, > 100 µM (inactive); in the test on HCC 2998 it was 28.6 µM (inactive); in the test on NCI-H522, > 100 µM (inactive); in the test on MOLT-4, 33.3 µM (inactive); in the test with OVCAR-3, 74.1 µM (inactive). In addition, the GI50 with SW-620 is > 100 µM (inactive); with HT-29, 38.8 µM (inactive); in the test with HOP-62, 92.9 µM (inactive); in the test on SF-539, > 100 µM (inactive); in the test on ACHN, > 100 µM (inactive); in the test on CAKI-1, > 100 µM (inactive). Moreover, the GI50 in the test with Hs-578T and in the test on OVCAR-5 was > 100 µM (inactive) in each case.

Regarding `CN1C(=O)C(=CNc2ccccc2Cl)C(=O)N(C)C1=O`, the GI50 was 40.8 µM (inactive) in the test with SK-OV-3; > 100 µM (inactive) with U-251; > 100 µM (inactive) with A498; 24 µM (inactive) with MCF7; 18.3 µM (inactive) in the test with OVCAR-4; 17.7 µM (inactive) in the test on SF-295. Further, the GI50 is 19.4 µM (inactive) with SR; > 100 µM (inactive) in the test with Malme-3M; 18.7 µM (inactive) in the test on HCC 2998; > 100 µM (inactive) in the test with NCI-H522; 22.6 µM (inactive) in the test on MOLT-4; 15.2 µM (inactive) in the test with OVCAR-3. The GI50 with SW-620 is > 100 µM (inactive); in the test with HT-29, > 100 µM (inactive); in the test on HOP-62, 19.8 µM (inactive); in the test with SF-539, 20.6 µM (inactive); in the test with ACHN it was 24.5 µM (inactive); in the test on CAKI-1, > 100 µM (inactive). The GI50 was > 100 µM (inactive) in the test on Hs-578T and 24.8 µM (inactive) in the test on OVCAR-5.

For `CCC(=O)COc1ccc(NC(NC(=O)C(C(F)(F)F)C(F)(F)F)(C(F)(F)F)C(F)(F)F)cc1`, the GI50 with SK-OV-3 is 55.6 µM (inactive); in the test on U-251, 46.7 µM (inactive); with A498, 60.4 µM (inactive); in the test on MCF7, 27.2 µM (inactive); with OVCAR-4 it was 35.6 µM (inactive); in the test with SF-295, 66.4 µM (inactive). The GI50 is 12.2 µM (inactive) with SR; 27 µM (inactive) in the test with Malme-3M; > 100 µM (inactive) in the test on HCC 2998; 18.4 µM (inactive) with NCI-H522; 14.3 µM (inactive) with MOLT-4; 94 µM (inactive) in the test with OVCAR-3. Further, the GI50 was 41.3 µM (inactive) in the test on SW-620; 22.7 µM (inactive) in the test with HT-29; > 100 µM (inactive) in the test on HOP-62; 25.3 µM (inactive) with SF-539; 33.5 µM (inactive) in the test with ACHN; 36.1 µM (inactive) in the test with CAKI-1. In addition, the GI50 in the test on Hs-578T is 31 µM (inactive); with OVCAR-5 it was 46.8 µM (inactive).

For the compound `O=[N+]([O-])c1ccc2c(c1)/C(=N/N=C1c3ccccc3Cc3ccccc31)c1cc([N+](=O)[O-])cc([N+](=O)[O-])c1-2`, the GI50 in the test with SK-OV-3 is 14.2 µM (inactive); in the test on U-251, 3.24 µM (inactive); with A498, 5.75 µM (inactive); in the test with MCF7, 1.65 µM (inactive); in the test with OVCAR-4, 1.73 µM (inactive); in the test on SF-295 it was 1.93 µM (inactive). Besides, the GI50 was 4.61 µM (inactive) in the test on SR; 2.79 µM (inactive) with Malme-3M; 5.85 µM (inactive) in the test with HCC 2998; 1.63 µM (inactive) with NCI-H522; 1.91 µM (inactive) in the test on MOLT-4; 1.69 µM (inactive) in the test on OVCAR-3. For the same compound, the GI50 with SW-620 was 3.28 µM (inactive); in the test with HT-29 it was 1.97 µM (inactive); with HOP-62, 3.01 µM (inactive); with SF-539 it was 2.99 µM (inactive); in the test with ACHN it was 2.99 µM (inactive); in the test on CAKI-1, 3.6 µM (inactive). Further, the GI50 was 2.86 µM (inactive) with Hs-578T and 2.75 µM (inactive) with OVCAR-5.

Take `COC(=O)c1ccccc1C#CC#Cc1ccccc1C(=O)OC`: the GI50 in the test on SK-OV-3 was > 10 µM (inactive); in the test with U-251, > 10 µM (inactive); in the test on A498, > 10 µM (inactive); with MCF7, 0.611 µM (active); with OVCAR-4, 2.9 µM (inactive); in the test on SF-295, > 10 µM (inactive). For the same compound, the GI50 in the test with SR was > 10 µM (inactive); with Malme-3M, 6.79 µM (inactive); in the test with HCC 2998 it was > 10 µM (inactive); with NCI-H522 it was > 10 µM (inactive); in the test on MOLT-4, > 10 µM (inactive); with OVCAR-3, 2.55 µM (inactive). Also, the GI50 with SW-620 is > 10 µM (inactive); with HT-29, 6.4 µM (inactive); in the test on HOP-62 it was > 10 µM (inactive); with SF-539, > 10 µM (inactive); in the test on ACHN, > 10 µM (inactive); with CAKI-1 it was > 10 µM (inactive). For the same compound, the GI50 in the test with Hs-578T and in the test with OVCAR-5 was > 10 µM (inactive) in each case.

Turning to `O=C1c2ccccc2-c2nnc3c(c21)Cc1ccccc1C3`, the GI50 in the test on SK-OV-3, in the test on U-251, in the test with A498, with MCF7, in the test on OVCAR-4 and with SF-295 was > 10 µM (inactive) in each case. For the same compound, the GI50 in the test on SR, with Malme-3M, in the test on HCC 2998, in the test on NCI-H522, in the test with MOLT-4 and in the test on OVCAR-3 was > 10 µM (inactive) in each case. In addition, the GI50 in the test on SW-620, with HT-29, in the test on HOP-62, in the test on SF-539, in the test with ACHN and in the test with CAKI-1 was > 10 µM (inactive) throughout. For the same compound, the GI50 in the test on Hs-578T and in the test with OVCAR-5 was > 10 µM (inactive) in each case.

As to `COC(=O)/C(=C(\C)NC(C)=O)c1c(C(=O)OC)[nH]c2ccccc12`, the GI50 in the test on SK-OV-3, in the test on U-251, in the test on A498, in the test on MCF7, with OVCAR-4 and in the test with SF-295 was > 100 µM (inactive) throughout. In addition, the GI50 in the test with SR was > 100 µM (inactive); with Malme-3M, > 100 µM (inactive); in the test on HCC 2998, > 100 µM (inactive); in the test with NCI-H522 it was 95.3 µM (inactive); with MOLT-4, > 100 µM (inactive); with OVCAR-3, > 100 µM (inactive). Besides, the GI50 with SW-620, in the test with HT-29, with HOP-62, with SF-539, in the test with ACHN and with CAKI-1 was > 100 µM (inactive) each time. For the same compound, the GI50 in the test on Hs-578T and in the test with OVCAR-5 was > 100 µM (inactive) throughout.

The values are drawn from ChEMBL document CHEMBL1201862, “PubChem BioAssay data set” (2004).
